Laboratory results as given in ChEMBL document CHEMBL1128160, “An attempt to synthesize prostanoid thromboxane A2 antagonists with an additional prostacyclin like quality” (Bioorg Med Chem Lett, 1995).

How the values were obtained:
[1] = target: T1, Thromboxane A2 receptor (Homo sapiens) (UniProt P21731); assay: Competition factor for Thromboxane A2 receptor binding affinity CF = (IC50-test)/(IC50-standard)
T1 sequence (whole entry): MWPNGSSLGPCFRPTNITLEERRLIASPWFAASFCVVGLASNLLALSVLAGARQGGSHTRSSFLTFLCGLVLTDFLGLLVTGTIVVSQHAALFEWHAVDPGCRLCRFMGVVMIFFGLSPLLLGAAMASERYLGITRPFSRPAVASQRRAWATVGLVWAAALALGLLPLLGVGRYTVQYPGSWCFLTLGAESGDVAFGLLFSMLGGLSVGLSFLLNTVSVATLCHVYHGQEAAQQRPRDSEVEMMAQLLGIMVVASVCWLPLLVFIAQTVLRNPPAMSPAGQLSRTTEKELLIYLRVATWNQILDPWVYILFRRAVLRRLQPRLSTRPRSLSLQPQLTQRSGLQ

Homo sapiens = species on record: Homo sapiens; assay: Inhibition of ADP-induced aggregation of human platelet rich plasma; format: functional
[2] = target: T1, Thromboxane A2 receptor (Homo sapiens); assay: Competition factor was evaluated for Thromboxane A2 receptor binding affinity CF = (IC50-test)/(IC50-standard)
[3] = target: T1, Thromboxane A2 receptor (Homo sapiens); assay: Competition factor was evaluated for Thromboxane A2 receptor binding affinity CF = (IC50-test)/(IC50-standard) by using [3H]iloprost agonist at 10 nM

Structure (SMILES): O=C(O)CCC/C=C\C[C@H]1/C(=N/OC(c2ccccc2)c2ccccc2)CC[C@@H]1NS(=O)(=O)c1ccc(F)cc1
- CF [1]: 6.9
- IC50 (Homo sapiens): 17000 nM

Structure (SMILES): O=C(O)CCC/C=C\C[C@H]1/C(=N/OC(c2ccccc2)c2ccccc2)CC[C@@H]1NS(=O)(=O)c1ccc(Cl)cc1
- CF [1]: 4
- IC50 (Homo sapiens): 17000 nM

Structure (SMILES): O=C(O)CCC/C=C\C[C@H]1C(=O)CC[C@@H]1NS(=O)(=O)c1ccc(F)cc1
- CF [1]: 6.4
- IC50 (Homo sapiens): 500 nM

Structure (SMILES): O=C(O)CCC/C=C\C[C@@H]1[C@H](O)CC[C@H]1NS(=O)(=O)c1ccc(Cl)cc1
- CF [1]: 85
- IC50 (Homo sapiens): 2200 nM

Structure (SMILES): O=C(O)CCC/C=C\C[C@H]1/C(=N/OCC2CCCCC2)CC[C@@H]1NS(=O)(=O)c1ccc(F)cc1
- CF [1]: 0.5
- IC50 (Homo sapiens): 1800 nM

Structure (SMILES): Cc1ccc(S(=O)(=O)N[C@@H]2CC[C@@H](O)[C@H]2C/C=C\CCCC(=O)O)cc1
- CF [1]: 340
- IC50 (Homo sapiens): 5800 nM

Structure (SMILES): Cc1ccc(S(=O)(=O)N[C@H]2CC/C(=N\OC(c3ccccc3)c3ccccc3)[C@@H]2C/C=C\CCCC(=O)O)cc1
- CF [1]: 4.5
- IC50 (Homo sapiens): 5600 nM

Structure (SMILES): O=C(O)CCC/C=C\C[C@H]1/C(=N/OCC2CCCCC2)CC[C@@H]1NS(=O)(=O)c1ccc(Cl)cc1
- CF [2]: 0.62
- IC50 (Homo sapiens): 1700 nM

Structure (SMILES): O=C(O)CC/C=C\C[C@@H]1[C@@H](NS(=O)(=O)c2ccc(Cl)cc2)CC[C@@H]1O
- CF [1]: 31
- IC50 (Homo sapiens): 1800 nM

Structure (SMILES): O=C(O)CCC/C=C\C[C@H]1/C(=N/OCc2ccc(C(F)(F)F)cc2)CC[C@@H]1NS(=O)(=O)c1ccc(F)cc1
- CF [1]: 0.13
- IC50 (Homo sapiens): 620 nM

Structure (SMILES): Cc1ccc(S(=O)(=O)N[C@H]2CCC(=O)[C@@H]2C/C=C\CCCC(=O)O)cc1
- CF [1]: 6.5
- IC50 (Homo sapiens): 670 nM

Structure (SMILES): O=C(O)CCC/C=C\C[C@@H]1[C@H](O)CC[C@H]1NS(=O)(=O)c1ccc(F)cc1
- CF [1]: 26
- IC50 (Homo sapiens): 6000 nM

Structure (SMILES): Cc1ccc(S(=O)(=O)N[C@H]2CC/C(=N\OCc3ccc(C(F)(F)F)cc3)[C@@H]2C/C=C\CCCC(=O)O)cc1
- CF [1]: < 1
- IC50 (Homo sapiens): 180 nM

Structure (SMILES): O=C(O)CCC/C=C\C[C@H]1C(=O)CC[C@@H]1NS(=O)(=O)c1ccc(Cl)cc1
- CF [1]: 2.6
- IC50 (Homo sapiens): 640 nM

Structure (SMILES): Cc1ccc(S(=O)(=O)N[C@H]2CC[C@H](O)[C@@H]2C/C=C\CCC(=O)O)cc1
- CF [1]: 135
- IC50 (Homo sapiens): 2500 nM

Structure (SMILES): O=C(O)CCC/C=C\C[C@H]1/C(=N/OCc2ccc(C(F)(F)F)cc2)CC[C@@H]1NS(=O)(=O)c1ccc(Cl)cc1
- CF [1]: 0.07
- IC50 (Homo sapiens): 200 nM

Structure (SMILES): Cc1ccc(S(=O)(=O)N[C@H]2CC[C@H](O)[C@@H]2C/C=C\CCCC(=O)O)cc1
- CF [1]: 7
- IC50 (Homo sapiens): 500 nM

Structure (SMILES): Cc1ccc(S(=O)(=O)N[C@H]2CC/C(=N\OCC3CCCCC3)[C@@H]2C/C=C\CCCC(=O)O)cc1
- CF [1]: 1
- IC50 (Homo sapiens): 600 nM

Structure (SMILES): O=C(O)CCC/C=C\C[C@@H]1[C@@H](NS(=O)(=O)c2ccc(F)cc2)CC[C@@H]1O
- CF [1]: 2.1
- IC50 (Homo sapiens): 640 nM

Structure (SMILES): O=C(O)CC/C=C\C[C@@H]1[C@@H](NS(=O)(=O)c2ccc(F)cc2)CC[C@@H]1O
- CF [1]: 200
- IC50 (Homo sapiens): 1600 nM

Structure (SMILES): O=C(O)CCC/C=C\C[C@@H]1[C@@H](NS(=O)(=O)c2ccc(Cl)cc2)CC[C@@H]1O
- CF [1]: 0.68
- IC50 (Homo sapiens): 190 nM

Structure (SMILES): C[C@@H]1CC/C(=N\OC(c2ccccc2)c2ccccc2)[C@H]1C/C=C\CCCC(=O)O
- CF [1]: 175
- CF [3]: 25
- IC50 (Homo sapiens): 800 nM
